Reference: patent publication US11178895B2, “Composition for enhancing immunity of insects and method thereof” (NatureWise Biotech & Medicals Corporation, priority 2017, dated 2021)

Test system: field bees
Assay: Honey bee acute contact toxicity test (topical imidacloprid): tolerance of bees to imidacloprid
Type: in vivo
Settings: control group fed 50% sucrose water
Description: Many reports confirm that neonicotinoids cause damage to the immune system of bees and many species (Mason et al., 2013). It is clear that damage to the immune system may be one of the important causes of bee killing by imidacloprid (a pesticide). According to the experimental results of the composition of the invention on the survival rate of bees and the regulation of immune genes, in this experiment, field bees that are easily exposed to pesticides are used as the test subjects, and sugar water containing a concentration of 0.5 mg/mL of Macaranga tanarius extract is fed to observe whether the tolerance of bees to imidacloprid can be enhanced.
The experiment employed Topical application method with reference to US EPAOCSPP 850.3020: Honey Bee Acute Contact Toxicity Test. […] After the bees were frozen and fainted, 1 μg/bee of the imidacloprid solution was administered quantitatively to the prothorax tergum of the bee by a microapplicator. The solvent control group was administered with 1 […]. Each group had 10 bees. After the administration of the drug, the bees were transferred to a constant-temperature growth box for breeding. The sugar water containing 0.5 mg/mL of Macaranga tanarius extract was provided to feed the bees in the experimental group, and the control group was fed with 50% sucrose water. […]

O=[N+]([O-])NC1=NCCN1Cc1ccc(Cl)nc1 [imidacloprid]
24-hour average mortality rate (6.7 ng/μL imidacloprid): 19.30%
24-hour average mortality rate (23.8 ng/μL imidacloprid): 36.84%
